Data published in ChEMBL document CHEMBL3352442, “Synthesis and structure-activity relationships study of dithiolethiones as inducers of glutathione in the SH-SY5Y neuroblastoma cell line” (Bioorg Med Chem Lett, 2014).
The source made the active and inactive calls. The calls are words filed in the database; no cut-off is given here.

Key:
[1] = test system: SH-SY5Y; experiment: Induction of glutathione in human SH-SY5Y cells at 100 uM incubated for 24 hrs by GSH/GSSG Glo assay; type: functional
[2] = (§1) Neuroprotection against 25 uM 6-hydroxydopamine-induced neurotoxicity in human SH-SY5Y cells assessed as cell viability at 100 uM pre-incubated for 24 hrs before 6-hydroxydopamine challenge; type: functional
[3] = Neuroprotection against 50 uM 6-hydroxydopamine-induced neurotoxicity in human SH-SY5Y cells assessed as cell viability at 100 uM pre-incubated for 24 hrs before 6-hydroxydopamine challenge; type: functional
[4] = Toxicity against human SH-SY5Y cells at 100 uM incubated for 24 hrs; type: cell-based
[5] = test system: SH-SY5Y; experiment: as §1; type: functional

SMILES | Activity [1] | Activity [2] [%] | Activity [3] [%] | Activity [4] | Activity [5]
S=c1sscc1-c1ccccc1 | Active |  |  |  | 
COc1ccc(-c2cc(=S)ss2)cc1 | inactive |  |  |  | 
S=c1ccss1 [DITHIOLETHIONE] | 215% | 52 | 47 | Non-toxic | 
S=c1ssc2c1CCCC2 | 98% |  |  |  | 
Oc1ccc(-c2cc(=S)ss2)cc1 | inactive |  |  |  | 
CCc1cc(=S)ss1 | Active |  |  |  | 
S=c1cc(C2CC2)ss1 | Active |  |  |  | 
S=c1ssc2c1CCC2 | 183% | 41 | 22 | Non-toxic | 
FC(F)(F)Cc1cssc1=S | Active |  |  |  | 
S=c1cc(-c2ccc(Cl)cc2)ss1 | inactive |  |  |  | inactive
Cc1ssc(=S)c1Cl | 175% | 52 | 33 | Non-toxic | 
COc1ccc(-c2cssc2=S)cc1 | Active |  |  |  | 
S=c1sscc1-c1ccc(Cl)cc1 | Active |  |  |  | 
